Common to all, as to experiment: inhibition of tumour cell growth, NCI panel, 48 h
Experiment [1] has as its system EKVX NSCLC.
For experiment [2], the system named is OVCAR-5 ovarian.
The test system of experiment [3] is KM12 colon.
Experiment [4] deals with LOX IMVI melanoma.
The test system of experiment [5] is SK-MEL-28 melanoma.
Experiment [6] deals with SW-620 colon.
In experiment [7] the test system is HT29 colon.
The subject of experiment [8] is RXF 393 renal.
In experiment [9] the test system is NCI-H226 lung.
Experiment [10] relates to UACC-62 melanoma.

SMILES strings stand for the structures.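 These data come from cells grown in 96-well plates and exposed to compound for 48 hours at five concentrations. Here, GI50 denotes the concentration required for 50% inhibition of growth. TGI is the concentration that stops growth completely.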

Take `CN(C)Cc1cccc(CN(C)C)[c]1[Sn]([Br])([c]1ccccc1)[c]1ccccc1`: the GI50 is 15.2 µM in [1]; 16.7 µM in experiment [2]; 11 µM in [3]; 6.25 µM in [4]; 14.5 µM in [5]; 13.5 µM in experiment [6]. For the same compound, the GI50 in experiment [7] was 8.18 µM. Besides, the TGI was 54.1 µM in experiment [1]; 32.5 µM in [2]; 28.1 µM in experiment [3]; 20.3 µM in [4]; 35.2 µM in experiment [5]; 29.7 µM in [6]. In experiment [7], this compound yielded a TGI of 71.8 µM.
Regarding `N#Cc1ccc(-c2nc3ccc(Cl)cc3[nH]2)cc1`, the TGI in experiment [1], in experiment [8], in experiment [3], in experiment [9], in [6] and in [7] was over 100 µM each time.
On to `C/C(=N\NS(=O)(=O)c1ccc(C)cc1)c1c(O)cc(C)oc1=O`, for which the TGI in [1], in experiment [3], in experiment [4], in experiment [9], in experiment [10] and in experiment [5] was over 100 µM in each case. In addition, the TGI in [6] and in experiment [7] was over 100 µM each time.
Consider `COC1CC2C=CC3C4OC2(/C(C)=C/C(C)C(C(C)O)OC1=O)C3C(O)C(C)C4OC(=O)c1ccc[nH]1` (centres undefined), for which the TGI in [1], in experiment [2], in experiment [3], in [4], in [10] and in [5] was over 100 µM in each case. Besides, the TGI in experiment [6] and in experiment [7] was over 100 µM each time.
In the case of `CC(Oc1ccc(OCC2CCCCC2)cc1)C(=O)O` (centres undefined), the TGI in experiment [3], in [4], in experiment [9], in experiment [10], in experiment [5] and in [6] was over 100 µM each time. The TGI in [7] is over 100 µM.
For the compound `NCCCn1c2c(c3cc4c(cc3c1=O)OCO4)C(=O)c1ccccc1-2`, the GI50 in experiment [1] is 0.842 µM; in experiment [3] it was 0.757 µM; in [4], 0.14 µM; in experiment [9], 4.09 µM; in experiment [10], 2.06 µM; in [7], 0.0575 µM. In addition, the TGI is 2.55 µM in experiment [1]; 2.13 µM in [3]; over 100 µM in experiment [4]; 24.8 µM in [9]; 5.5 µM in experiment [10]; over 100 µM in experiment [7].
Turning to `N#CC(C(=O)CCC(=O)Nc1ccc(Cl)cc1)c1ccccc1Cl` (centres undefined), the TGI in experiment [1], in experiment [2], in experiment [3], in experiment [9], in experiment [10] and in experiment [5] was over 100 µM each time. The compound also had a TGI in experiment [6] of over 100 µM.
`Cc1cccc2c1O/C(=C\c1ncc([N+](=O)[O-])n1C)C2=O`: the GI50 in experiment [2] was 0.576 µM; in [3] it was 0.262 µM; in experiment [4], 0.092 µM; in experiment [9], 1.08 µM; in experiment [10] it was 0.316 µM; in [5], 0.24 µM. For the same compound, the GI50 in experiment [6] is 0.0888 µM; in experiment [7], 0.104 µM. In addition, the TGI was found to be 4.45 µM in experiment [2]; 0.877 µM in experiment [3]; 0.387 µM in experiment [4]; 4.29 µM in experiment [9]; 1.09 µM in experiment [10]; 0.688 µM in [5]. In addition, the TGI in experiment [6] is 0.537 µM; in experiment [7], 0.404 µM.
`C=CCCC(C)N(C(=O)OC(C)(C)C)S(=O)(=O)c1ccc(C)cc1` (centres undefined): the TGI in experiment [2], in experiment [3], in experiment [4], in experiment [9], in [10] and in experiment [5] was over 100 µM each time. For the same compound, the TGI in [6] and in experiment [7] was over 100 µM throughout.
`O=C(N/C(=C\c1ccc([N+](=O)[O-])cc1)c1nc2ccc(Cl)cc2[nH]1)c1ccccc1`: the TGI was 74.6 µM in experiment [1]; 74.5 µM in experiment [2]; 58.3 µM in experiment [8]; 61.4 µM in experiment [3]; 50.1 µM in experiment [10]; 83.7 µM in [5]. Besides, the TGI in experiment [6] is 61.3 µM; in experiment [7] it was 43.9 µM.
Turning to `COc1ccc(-c2csc(NC(=O)N3CCN(c4cc5c(cc4F)c(=O)c(C(=O)O)cn5C4CC4)CC3)n2)cc1`, the GI50 is 3.11 µM in [1]; 3.03 µM in experiment [8]; 1.63 µM in experiment [3]; 2.95 µM in experiment [9]; 5.04 µM in experiment [6]. Besides, the TGI was over 100 µM in experiment [1]; 23.4 µM in experiment [8]; over 100 µM in experiment [3]; over 100 µM in experiment [9]; over 100 µM in experiment [6].

Values taken from PubChem BioAssay (NCI).
